Test results from patent publication US12077503B2, “Substituted cyclic amides and their use as herbicides” (FMC CORPORATION, priority 2015, dated 2024).

Assays:
Assay type in all cases: in vivo
[1] = test system: barnyardgrass (Echinochloa crus-galli); assay: Test G Pre-Emergence Protocol; settings: Echinochloa crus-galli, pre-emergence, 312 h, evaluated after 13 days; for pest or weed control at 15.625 g/ha: 15.625 g ai/ha, read-out: Barnyard grass damage rating (100=total damage to plant; 0=no damage to plant); for pest or weed control at 62.5 g/ha: 62.5 g ai/ha, 100=total damage to plant, 0=no damage to plant, read-out: plant damage rating, Barnyardgrass; for pest or weed control at 250 g/ha: 250 g ai/ha, read-out: Barnyardgrass damage rating (100=total damage to plant; 0=no damage to plant)
Method in brief: (§1)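 Glasshouse pre-emergence test: soil-sown seeds, sprayed after 1 d at 15.625, 62.5 or 250 g/ha. Conditions 24/16° C day/night, 14 h light, 65% humidity, watering twice daily. Rating 13 d post-spray (100 = total damage).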

[2] = test system: giant foxtail (Setaria faberi); assay: Test G Pre-Emergence Protocol; settings: Setaria faberi, pre-emergence, 312 h, evaluated after 13 days; for pest or weed control at 15.625 g/ha: 15.625 g ai/ha; for pest or weed control at 15.625 g/ha / pest or weed control at 250 g/ha: read-out: Foxtail, Giant damage rating (100=total damage to plant; 0=no damage to plant); for pest or weed control at 62.5 g/ha: 62.5 g ai/ha, 100=total damage to plant, 0=no damage to plant, read-out: plant damage rating, Foxtail, Giant; for pest or weed control at 250 g/ha: 250 g ai/ha
Method in brief: as §1

[3] = test system: velvetleaf (Abutilon theophrasti); assay: Test G Pre-Emergence Protocol; settings: Abutilon theophrasti, pre-emergence, 312 h, evaluated after 13 days; for pest or weed control at 15.625 g/ha: 15.625 g ai/ha; for pest or weed control at 15.625 g/ha / pest or weed control at 250 g/ha: read-out: Velvetleaf damage rating (100=total damage to plant; 0=no damage to plant); for pest or weed control at 62.5 g/ha: 62.5 g ai/ha, 100=total damage to plant, 0=no damage to plant, read-out: plant damage rating, Velvetleaf; for pest or weed control at 250 g/ha: 250 g ai/ha
Method in brief: as §1

[4] = test system: ivy-leaved morning glory (Ipomoea hederacea); assay: Test G Pre-Emergence Protocol; settings: Ipomoea, pre-emergence, 312 h, evaluated after 13 days; for pest or weed control at 15.625 g/ha: 15.625 g ai/ha, read-out: Morning-glory, Ivy-leaved damage rating (100=total damage to plant; 0=no damage to plant); for pest or weed control at 62.5 g/ha: 62.5 g ai/ha, 100=total damage to plant, 0=no damage to plant, read-out: plant damage rating, Morningglory, Ivy-leaved; for pest or weed control at 250 g/ha: 250 g ai/ha, read-out: Morningglory, Ivy-leaved damage rating (100=total damage to plant; 0=no damage to plant)
Method in brief: as §1

corn (Zea mays) [5] = assay: Test G Pre-Emergence Protocol; settings: Zea mays, pre-emergence, 312 h, evaluated after 13 days; for plant injury at 15.625 g/ha: 15.625 g ai/ha; for plant injury at 15.625 g/ha / plant injury at 250 g/ha: read-out: Corn damage rating (100=total damage to plant; 0=no damage to plant); for plant injury at 62.5 g/ha: 62.5 g ai/ha, 100=total damage to plant, 0=no damage to plant, read-out: plant damage rating, Corn; for plant injury at 250 g/ha: 250 g ai/ha
Method in brief: as §1

[6] = test system: redroot pigweed (Amaranthus retroflexus); assay: Test G Pre-Emergence Protocol; settings: Amaranthus retroflexus, pre-emergence, 312 h, evaluated after 13 days; for pest or weed control at 15.625 g/ha: 15.625 g ai/ha; for pest or weed control at 15.625 g/ha / pest or weed control at 250 g/ha: read-out: Pigweed, Redroot damage rating (100=total damage to plant; 0=no damage to plant); for pest or weed control at 62.5 g/ha: 62.5 g ai/ha, 100=total damage to plant, 0=no damage to plant, read-out: plant damage rating, Pigweed, Redroot; for pest or weed control at 250 g/ha: 250 g ai/ha
Method in brief: as §1

[7] = test system: barnyardgrass (Echinochloa crus-galli); assay: Test G Post-Emergence Protocol; settings: Echinochloa crus-galli, post-emergence, 312 h; for pest or weed control at 15.625 g/ha: 15.625 g ai/ha, evaluated after 13 days (100=total damage to plant; 0=no damage to plant), read-out: Barnyardgrass damage rating; for pest or weed control at 62.5 g/ha: 62.5 g ai/ha, read-out: Barnyardgrass damage rating (100=total damage to plant; 0=no damage to plant); for pest or weed control at 62.5 g/ha / pest or weed control at 250 g/ha: evaluated after 13 days; for pest or weed control at 250 g/ha: 250 g ai/ha, read-out: damage to plant, Barnyardgrass (100=total damage to plant; 0=no damage to plant)
Method in brief: (§2)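 A glasshouse post-emergence test: 8-day-old plants sprayed at 15.625, 62.5 or 250 g/ha, then grown at 24/16 °C day/night with 14 h light and 65% humidity. Damage rated 13 days later, 0–100.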

[8] = test system: giant foxtail (Setaria faberi); assay: Test G Post-Emergence Protocol; settings: Setaria faberi, post-emergence, 312 h; for pest or weed control at 15.625 g/ha: 15.625 g ai/ha, evaluated after 13 days (100=total damage to plant; 0=no damage to plant), read-out: Foxtail, Giant damage rating; for pest or weed control at 62.5 g/ha: 62.5 g ai/ha, read-out: Foxtail, Giant damage rating (100=total damage to plant; 0=no damage to plant); for pest or weed control at 62.5 g/ha / pest or weed control at 250 g/ha: evaluated after 13 days; for pest or weed control at 250 g/ha: 250 g ai/ha, read-out: damage to plant, Foxtail, Giant (100=total damage to plant; 0=no damage to plant)
Method in brief: as §2

[9] = test system: velvetleaf (Abutilon theophrasti); assay: Test G Post-Emergence Protocol; settings: Abutilon theophrasti, post-emergence, 312 h; for pest or weed control at 15.625 g/ha: 15.625 g ai/ha, evaluated after 13 days (100=total damage to plant; 0=no damage to plant), read-out: Velvetleaf damage rating; for pest or weed control at 62.5 g/ha: 62.5 g ai/ha, read-out: Velvetleaf damage rating (100=total damage to plant; 0=no damage to plant); for pest or weed control at 62.5 g/ha / pest or weed control at 250 g/ha: evaluated after 13 days; for pest or weed control at 250 g/ha: 250 g ai/ha, read-out: damage to plant, Velvetleaf (100=total damage to plant; 0=no damage to plant)
Method in brief: as §2

[10] = test system: ivy-leaved morning glory (Ipomoea hederacea); assay: Test G Post-Emergence Protocol; settings: Ipomoea, post-emergence, 312 h; for pest or weed control at 15.625 g/ha: 15.625 g ai/ha, evaluated after 13 days (100=total damage to plant; 0=no damage to plant), read-out: Morningglory, Ivy-leaved damage rating; for pest or weed control at 62.5 g/ha: 62.5 g ai/ha, read-out: Morningglory, Ivy-leaved damage rating (100=total damage to plant; 0=no damage to plant); for pest or weed control at 62.5 g/ha / pest or weed control at 250 g/ha: evaluated after 13 days; for pest or weed control at 250 g/ha: 250 g ai/ha, read-out: damage to plant, Morningglory, Ivy-leaved (100=total damage to plant; 0=no damage to plant)
Method in brief: as §2

corn (Zea mays) [11] = assay: Test G Post-Emergence Protocol; settings: Zea mays, post-emergence, 312 h; for plant injury at 15.625 g/ha: 15.625 g ai/ha, evaluated after 13 days (100=total damage to plant; 0=no damage to plant), read-out: Corn damage rating; for plant injury at 62.5 g/ha: 62.5 g ai/ha, read-out: Corn damage rating (100=total damage to plant; 0=no damage to plant); for plant injury at 62.5 g/ha / plant injury at 250 g/ha: evaluated after 13 days; for plant injury at 250 g/ha: 250 g ai/ha, read-out: damage to plant, Corn (100=total damage to plant; 0=no damage to plant)
Method in brief: as §2

[12] = test system: redroot pigweed (Amaranthus retroflexus); assay: Test G Post-Emergence Protocol; settings: Amaranthus retroflexus, post-emergence, 312 h; for pest or weed control at 15.625 g/ha: 15.625 g ai/ha, evaluated after 13 days (100=total damage to plant; 0=no damage to plant), read-out: Pigweed, Redroot damage rating; for pest or weed control at 62.5 g/ha: 62.5 g ai/ha, read-out: Pigweed, Redroot damage rating (100=total damage to plant; 0=no damage to plant); for pest or weed control at 62.5 g/ha / pest or weed control at 250 g/ha: evaluated after 13 days; for pest or weed control at 250 g/ha: 250 g ai/ha, read-out: damage to plant, Pigweed, Redroot (100=total damage to plant; 0=no damage to plant)
Method in brief: as §2

| Structure (SMILES) | pest or weed control at 15.625 g/ha [1] | pest or weed control at 62.5 g/ha [1] | pest or weed control at 250 g/ha [1] | pest or weed control at 15.625 g/ha [2] | pest or weed control at 62.5 g/ha [2] | pest or weed control at 250 g/ha [2] | pest or weed control at 15.625 g/ha [3] | pest or weed control at 62.5 g/ha [3] | pest or weed control at 250 g/ha [3] | pest or weed control at 15.625 g/ha [4] | pest or weed control at 62.5 g/ha [4] | pest or weed control at 250 g/ha [4] | plant injury at 15.625 g/ha (corn (Zea mays) [5]) | plant injury at 62.5 g/ha (corn (Zea mays) [5]) | plant injury at 250 g/ha (corn (Zea mays) [5]) | pest or weed control at 15.625 g/ha [6] | pest or weed control at 62.5 g/ha [6] | pest or weed control at 250 g/ha [6] | pest or weed control at 15.625 g/ha [7] | pest or weed control at 62.5 g/ha [7] | other results |
| --- | --- | --- | --- | --- | --- | --- | --- | --- | --- | --- | --- | --- | --- | --- | --- | --- | --- | --- | --- | --- | --- |
| CN1C[C@@H](c2ccc(C(F)(F)F)cc2)[C@H](C(=O)Nc2ncc(Cl)s2)C1=O (racemic) [Compound 1569] | 0% | 0% | 0% | 0% | 0% | 0% | 0% | 0% | 0% | 0% | 0% | 0% | 0% | 0% | 0% | 0% | 0% | 0% | 0% | 10% | pest or weed control at 250 g/ha [7]: 20%; pest or weed control at 15.625 g/ha [8]: 0%; pest or weed control at 62.5 g/ha [8]: 0%; pest or weed control at 250 g/ha [8]: 0%; pest or weed control at 15.625 g/ha [9]: 0%; pest or weed control at 62.5 g/ha [9]: 0%; pest or weed control at 250 g/ha [9]: 0%; pest or weed control at 15.625 g/ha [10]: 0%; pest or weed control at 62.5 g/ha [10]: 0%; pest or weed control at 250 g/ha [10]: 0%; plant injury at 15.625 g/ha (corn (Zea mays) [11]): 0%; plant injury at 62.5 g/ha (corn (Zea mays) [11]): 0%; plant injury at 250 g/ha (corn (Zea mays) [11]): 0%; pest or weed control at 15.625 g/ha [12]: 0%; pest or weed control at 62.5 g/ha [12]: 0%; pest or weed control at 250 g/ha [12]: 0% |
| CN1C[C@@H](c2ccc(C(F)(F)F)cc2)[C@H](C(=O)Nc2ccnc(Cl)c2)C1=O (racemic) [Compound 1571] | 0% | 0% | 0% | 0% | 0% | 20% | 0% | 0% | 0% | 0% | 0% | 0% | 0% | 0% | 0% | 0% | 0% | 0% | 0% | 0% | pest or weed control at 250 g/ha [7]: 0%; pest or weed control at 15.625 g/ha [8]: 0%; pest or weed control at 62.5 g/ha [8]: 0%; pest or weed control at 250 g/ha [8]: 0%; pest or weed control at 15.625 g/ha [9]: 0%; pest or weed control at 62.5 g/ha [9]: 0%; pest or weed control at 250 g/ha [9]: 0%; pest or weed control at 15.625 g/ha [10]: 0%; pest or weed control at 62.5 g/ha [10]: 0%; pest or weed control at 250 g/ha [10]: 0%; plant injury at 15.625 g/ha (corn (Zea mays) [11]): 0%; plant injury at 62.5 g/ha (corn (Zea mays) [11]): 0%; plant injury at 250 g/ha (corn (Zea mays) [11]): 0%; pest or weed control at 15.625 g/ha [12]: 0%; pest or weed control at 62.5 g/ha [12]: 0%; pest or weed control at 250 g/ha [12]: 0% |
| CN1C[C@@H](c2ccc(C(F)(F)F)cc2)[C@H](C(=O)Nc2ccn[nH]2)C1=O (racemic) [Compound 1573] | 0% | 0% | 0% | 0% | 0% | 0% | 0% | 0% | 0% | 0% | 0% | 0% | 0% | 0% | 0% | 0% | 0% | 0% | 0% | 0% | pest or weed control at 250 g/ha [7]: 0%; pest or weed control at 15.625 g/ha [8]: 0%; pest or weed control at 62.5 g/ha [8]: 0%; pest or weed control at 250 g/ha [8]: 0%; pest or weed control at 15.625 g/ha [9]: 0%; pest or weed control at 62.5 g/ha [9]: 0%; pest or weed control at 250 g/ha [9]: 0%; pest or weed control at 15.625 g/ha [10]: 0%; pest or weed control at 62.5 g/ha [10]: 0%; pest or weed control at 250 g/ha [10]: 0%; plant injury at 15.625 g/ha (corn (Zea mays) [11]): 0%; plant injury at 62.5 g/ha (corn (Zea mays) [11]): 0%; plant injury at 250 g/ha (corn (Zea mays) [11]): 0%; pest or weed control at 15.625 g/ha [12]: 0%; pest or weed control at 62.5 g/ha [12]: 0%; pest or weed control at 250 g/ha [12]: 0% |
